This note sets out measurements from ChEMBL document CHEMBL1201862, “PubChem BioAssay data set” (2004).

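Five compound concentrations were applied to cells in 96-well plates for 48 hours; endpoints were derived by simple linear interpolation of the resulting dose-response curve. At the GI50, growth is halved.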 Calls of active or inactive are those of the source. No stated cut-off is given here; in the data, active = GI50 up to about 1.1 µM and inactive = higher.

Test systems include MOLT-4; MDA-N; PC-3; SR; UACC-62; Hs-578T; NCI-H226; HL-60; NCI-H522; A549; U-251; SN12C; SF-268; MDA-MB-231; DMS-273; KM-20L2; DLD-1; SNB-78; DMS-114; HOP-18.
What all share (assay): NCI-60 cell line screen, 48 h

With `N#CSCC1COc2ccccc2O1` (configuration not stated), the GI50 was 3.3 µM (inactive) in the assay with MOLT-4; > 10 µM (inactive) in the assay with MDA-N; > 10 µM (inactive) in the assay on PC-3; 2.58 µM (inactive) in the assay on SR; > 10 µM (inactive) in the assay on UACC-62; > 10 µM (inactive) with Hs-578T. The GI50 in the assay with NCI-H226 is 6.11 µM (inactive); in the assay with HL-60, 2.55 µM (inactive); in the assay on NCI-H522 it was 2.62 µM (inactive); in the assay on A549, > 10 µM (inactive); in the assay with U-251, > 10 µM (inactive); with SN12C, 7.57 µM (inactive). The GI50 in the assay with SF-268 and in the assay with MDA-MB-231 was > 10 µM (inactive) throughout.
In the case of `CC(=O)N(CCN1C(=O)c2ccccc2C1=O)CCN1C(=O)c2ccccc2C1=O`, the GI50 with DMS-273, in the assay with KM-20L2, in the assay on DLD-1, in the assay with MOLT-4, with SNB-78 and in the assay with SR was > 100 µM (inactive) each time. Further, the GI50 with UACC-62, in the assay with HL-60, in the assay with NCI-H522, with DMS-114, in the assay with A549 and in the assay on U-251 was > 100 µM (inactive) each time. Besides, the GI50 in the assay on SN12C and in the assay with SF-268 was > 100 µM (inactive) throughout.
In the case of `COc1ccc(-c2cc(C(O)C3CCCCN3)c3ccccc3n2)cc1` (configuration not stated), the GI50 is 3.59 µM (inactive) with MOLT-4; 4.92 µM (inactive) in the assay with MDA-N; 5.08 µM (inactive) in the assay on PC-3; 0.394 µM (active) in the assay with SR; 3.37 µM (inactive) in the assay on UACC-62; 14.3 µM (inactive) in the assay on Hs-578T. For the same molecule, the GI50 was 7.06 µM (inactive) in the assay with NCI-H226; 11.1 µM (inactive) in the assay with HL-60; 7.05 µM (inactive) in the assay on NCI-H522; 13.8 µM (inactive) in the assay with A549; 3.63 µM (inactive) in the assay on U-251; 10.6 µM (inactive) in the assay on SN12C. The results for the GI50 with SF-268 and with MDA-MB-231 were 11.2 µM (inactive) and 2.36 µM (inactive), respectively.
For `CC(NNC(=O)c1cc[n+]([BH2-]C#N)cc1)c1ccc(F)cc1` (configuration not stated), the GI50 in the assay on MOLT-4, in the assay with MDA-N, in the assay with PC-3, with SR, in the assay with UACC-62 and in the assay with Hs-578T was > 100 µM (inactive) throughout. The GI50 in the assay with NCI-H226, in the assay on HL-60, in the assay on NCI-H522, in the assay with A549, with U-251 and in the assay on SN12C was > 100 µM (inactive) throughout. Moreover, the GI50 with SF-268 and in the assay on MDA-MB-231 was > 100 µM (inactive) each time.
As for `O=C(O)/C=C/c1c[nH]cn1`, the GI50 with DMS-273, in the assay on DLD-1, in the assay on MOLT-4, in the assay with UACC-62, with HOP-18 and in the assay on NCI-H226 was > 500 µM (inactive) throughout. Moreover, the GI50 in the assay with NCI-H522, in the assay on DMS-114, with A549, in the assay on U-251 and with SN12C was > 500 µM (inactive) each time.
On to `COc1ccc(-c2cc(=O)c3ccccc3o2)cc1N`, for which the GI50 with DMS-273 was 41.3 µM (inactive); with KM-20L2 it was 34.1 µM (inactive); in the assay with MOLT-4 it was 26.3 µM (inactive); in the assay on SNB-78 it was 68.4 µM (inactive); in the assay on UACC-62 it was 25.8 µM (inactive); with HOP-18 it was 17.7 µM (inactive). Besides, the GI50 is > 100 µM (inactive) with NCI-H226; 15.6 µM (inactive) with HL-60; 20.5 µM (inactive) in the assay on NCI-H522; 34 µM (inactive) in the assay with DMS-114; 49.9 µM (inactive) with A549; 69.3 µM (inactive) in the assay with U-251. Besides, the values for the GI50 in the assay with SN12C and with SF-268 were 84.7 µM (inactive) and 25.7 µM (inactive), respectively.
Turning to `Clc1ncc(C(Cl)(Cl)Cl)nc1-c1ccccc1`, the GI50 in the assay on MOLT-4 was 4.75 µM (inactive); with MDA-N, 1.87 µM (inactive); in the assay with PC-3, 1.78 µM (inactive); with SR, 3.85 µM (inactive); with UACC-62, 2.56 µM (inactive); in the assay on Hs-578T it was 2.82 µM (inactive). In addition, the GI50 was 18.4 µM (inactive) with NCI-H226; 2.7 µM (inactive) in the assay with HL-60; 2.52 µM (inactive) with NCI-H522; 6.46 µM (inactive) in the assay on A549; 1.84 µM (inactive) in the assay with U-251; 2.86 µM (inactive) in the assay on SN12C. For the same molecule, the GI50 is 2.19 µM (inactive) with SF-268 and 1.97 µM (inactive) with MDA-MB-231.
Regarding `COc1ccc(-c2nnc3c4ccccc4sn23)cc1`, the GI50 in the assay with DMS-273 was 10.8 µM (inactive); with KM-20L2, 29.2 µM (inactive); in the assay on MOLT-4, 15.3 µM (inactive); in the assay on SNB-78, 41.9 µM (inactive); in the assay on SR it was 16.6 µM (inactive); in the assay with UACC-62, 35.4 µM (inactive). In addition, the GI50 in the assay on HOP-18 is 23.2 µM (inactive); with HL-60, 15.9 µM (inactive); in the assay with DMS-114 it was 17.1 µM (inactive); in the assay on A549, 25.4 µM (inactive); in the assay with U-251, 23.4 µM (inactive); in the assay with SN12C it was 17.8 µM (inactive). The GI50 with SF-268 is 22.5 µM (inactive).
For `CCCCCCCCC[C@@H]1C[C@H](O)[C@H](Cc2ccccc2)N1C(=O)OC(C)(C)C`, the GI50 with DMS-273 is 18.1 µM (inactive); in the assay on KM-20L2, 17.1 µM (inactive); in the assay with DLD-1, 18.3 µM (inactive); with MOLT-4, 36.5 µM (inactive); in the assay with SNB-78, 22.8 µM (inactive); in the assay with SR, 18.2 µM (inactive). The GI50 is 17 µM (inactive) with UACC-62; 22.9 µM (inactive) in the assay on HL-60; 16.4 µM (inactive) with NCI-H522; 16.9 µM (inactive) in the assay on DMS-114; 18 µM (inactive) with A549; 16.1 µM (inactive) with U-251. Besides, the GI50 is 16.7 µM (inactive) in the assay with SN12C and 18.7 µM (inactive) in the assay on SF-268.
Regarding `Sc1nn2c(COc3cc(Cl)c(OCc4nnc5sc(S)nn45)cc3Cl)nnc2s1`, the GI50 in the assay on MOLT-4 was 31.3 µM (inactive); in the assay on MDA-N it was 33.6 µM (inactive); in the assay with PC-3, > 100 µM (inactive); with SR, 30.1 µM (inactive); in the assay with UACC-62, 28.6 µM (inactive); with Hs-578T, > 100 µM (inactive). The GI50 with NCI-H226 is > 100 µM (inactive); in the assay on HL-60 it was 37.8 µM (inactive); in the assay with NCI-H522, 20.1 µM (inactive); with A549, > 100 µM (inactive); in the assay with U-251, > 100 µM (inactive); in the assay on SN12C, 41.2 µM (inactive). The GI50 was 44.6 µM (inactive) in the assay with SF-268 and > 100 µM (inactive) in the assay with MDA-MB-231.
On to `CCOC(=O)c1cc(C)nc2c1c(=O)n(-c1ccccc1)c(=O)n2CCCCN1CCN(c2ncccn2)CC1`, for which the GI50 in the assay on MOLT-4 is 11.3 µM (inactive); in the assay on MDA-N, > 100 µM (inactive); with PC-3, 61.4 µM (inactive); in the assay with SR, 29.9 µM (inactive); with UACC-62, 37.2 µM (inactive); with Hs-578T, > 100 µM (inactive). Also, the GI50 in the assay on NCI-H226 is > 100 µM (inactive); in the assay with HL-60, 25.4 µM (inactive); in the assay on NCI-H522 it was > 100 µM (inactive); in the assay on A549 it was > 100 µM (inactive); in the assay with U-251, > 100 µM (inactive); with SN12C, > 100 µM (inactive). Besides, the GI50 in the assay with SF-268 is > 100 µM (inactive); in the assay with MDA-MB-231, 80.7 µM (inactive).
`CCCCCCCC/C=C\CCCCCCCCNc1ccn(C2OC(COP(=O)(O)OC3CC(n4cc(F)c(=O)[nH]c4=O)OC3CO)C(O)C2O)c(=O)n1` (configuration not stated): the GI50 with MOLT-4 was 0.471 µM (active); with MDA-N, > 55.1 µM (inactive); in the assay on PC-3, 28.7 µM (inactive); with SR, 0.0159 µM (active); with UACC-62 it was 0.223 µM (active); in the assay on Hs-578T, > 100 µM (inactive). The GI50 is > 28.4 µM (inactive) with NCI-H226; 1.25 µM (inactive) with HL-60; > 53.8 µM (inactive) in the assay with NCI-H522; < 0.0194 µM (active) in the assay on A549; 2.89 µM (inactive) with U-251; > 100 µM (inactive) in the assay on SN12C. Also, the GI50 in the assay on SF-268 was < 0.0292 µM (active); in the assay with MDA-MB-231, > 100 µM (inactive).
Take `CC1(C)N=C(N)N=C(N)N1c1ccc(Cl)cc1`: the GI50 is 1.71 µM (inactive) in the assay with MOLT-4; 1.51 µM (inactive) in the assay with MDA-N; 1.88 µM (inactive) in the assay on PC-3; 1.36 µM (inactive) with SR; 4.84 µM (inactive) in the assay on UACC-62; > 100 µM (inactive) in the assay with Hs-578T. Besides, the GI50 in the assay with NCI-H226 was 85.5 µM (inactive); in the assay with HL-60 it was 15.4 µM (inactive); with NCI-H522 it was 3.99 µM (inactive); in the assay with A549 it was 0.665 µM (active); with U-251 it was 1.3 µM (inactive); in the assay on SN12C, 6.71 µM (inactive). For the same molecule, the figures for the GI50 in the assay with SF-268 and in the assay with MDA-MB-231 were 0.708 µM (active) and 21.7 µM (inactive), respectively.
Turning to `CN(CCO)CCC1COc2ccccc2O1` (configuration not stated), the GI50 in the assay with MOLT-4, with MDA-N, with PC-3, in the assay on SR, with UACC-62 and in the assay on Hs-578T was > 10 µM (inactive) each time. For the same molecule, the GI50 in the assay on NCI-H226 was > 10 µM (inactive); in the assay on HL-60, > 10 µM (inactive); in the assay with NCI-H522 it was 2.21 µM (inactive); in the assay on A549, > 10 µM (inactive); in the assay on U-251 it was > 10 µM (inactive); with SN12C it was > 10 µM (inactive). Besides, the GI50 with SF-268 and in the assay with MDA-MB-231 was > 10 µM (inactive) throughout.
